From patent publication US12145947B2, “Pyrimidine based modulators and uses thereof” (Quanta Therapeutics, Inc., priority 2022, dated 2024)
Like-named read-outs stand apart in the source and are kept apart here.

Assays:
[1] = target: T1, GST-tagged KRAS-G12D (2-169) (Homo sapiens, UniProt P01116, G12D); assay: Nucleotide exchange assay (NEA), SOS-mediated, HTRF, KRAS G12D; assay type: biochemical; settings: IC50 extracted at 30 min
T1 construct: GST-tagged KRAS-G12D (2-169, Reaction Biology, MSC-11-539); purchased Reaction Biology MSC-11-539 (KRAS G12D); MSC-11-502 (SOS1cat)
Procedure, shortened: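 IC50 values come from 4-parameter fits at the 30 min time point of an SOS-driven exchange read by HTRF, normalised to DMSO (0%) and SOS-free blank (100%). Final reaction: 5 nM GST-KRAS-G12D (2-169), 20 nM SOScat, 150 nM fluorescent GTP-DY-647P1, after 1 h RT compound preincubation with KRAS and Tb-cryptate anti-GST.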

[2] = test system: AGS cells (KRAS G12D), phospho-ERK; assay: pERK In Cell Western (ICW) assay (Method B), AGS cells; assay type: cell-based; settings: Homo sapiens
Experimental: (§1) pERK ICW is a high throughput screening assay to evaluate the cellular potency of mutant KRAS small molecule inhibitors. KRAS mutant cell lines AGS and GP2D (KRAS^G12D) were purchased from ATCC and maintained respectively in RPMI and DMEM medium supplemented with 10% fetal bovine serum and Penicillin/Streptomycin.
(§2) Cells grown in exponential phase were trypsinized, resuspended in fresh media, and viable cells were counted using a cell counter with Trypan Blue (BioRad TC20). Cells were seeded into 384-well plate (Greiner 781091) at density of 5,000 cells/well for AGS and 10,000 cells/well for GP2D and allowed to grow overnight in a 37° C. CO2 incubator. The next day, compounds were dispensed into wells with a ½ log, 10-point serial dilution and top concentration of […] using Tecan D300e dispenser and incubated for 3 hours in a 37° C. CO2 incubator. Cells were then fixed with paraformaldehyde (Electron Microscopy Sciences, 15710, 4% final concentration) for 30 min, permeabilized with wash buffer (1×PBS+0.1% Triton X-100) for 30 min and blocked with Odyssey blocking buffer (Li—COR 927-70001) for 1 hour, all at room temperature (RT). Phospho-ERK antibody (CST 4370L) was diluted 1:500 in Odyssey blocking+0.2% Tween 20 and incubated with cells overnight at 4° C. The next day, plates were washed 5× with wash buffer, incubated with IRDye 800 CW, Goat anti-Rabbit secondary antibody (Li—COR 926-32211, 1:500) and DRAQ5 (CST 4084L, 1:5,000) diluted in Odyssey blocking+0.2% Tween 20 for 1 hour, washed 5×, and imaged on an Odyssey CLx imaging system.
(§3) For data analysis, signal intensities from 800 (phosphor-ERK) and 700 (DRAQ5) channels were extracted, and phospho-ERK signals were normalized to DRAQ5 signals for each well and percent of DMSO control values were computed. Data were then imported into Graphpad Prism to compute half-maximal inhibitory concentrations (IC50) using a 4-parameter variable slope model. Z-factor for each plate was computed from signals derived from wells treated with either DMSO or […] of Trametinib. AGS pERK ICW (Method B) IC50 (uM) values of selected compounds are depicted in Table 2 with compounds having a value 0.001 uM to 0.01 uM as ++++; >0.01 uM to 0.1 uM as +++; >0.1 uM to 1 uM as ++; 1 uM to 10 uM as + and >10 uM as NA.

[3] = test system: GP2D cells (KRAS G12D), phospho-ERK; assay: pERK In Cell Western (ICW) assay, GP2D cells; assay type: cell-based; settings: Table 4, 3 hours
Experimental: as §1, §2, §3

[4] = Table 4, pERK, 3 hours, read-out: ICW-AGS

T1 sequence (P01116 2-169 isoform P01116-2 G12D): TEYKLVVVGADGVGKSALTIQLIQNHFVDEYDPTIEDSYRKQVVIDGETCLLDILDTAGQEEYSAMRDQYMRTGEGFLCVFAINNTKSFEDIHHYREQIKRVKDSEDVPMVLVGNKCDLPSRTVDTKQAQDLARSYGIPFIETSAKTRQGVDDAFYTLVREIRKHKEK

SMILES | IC50 ([1]; Table 2) [nM] | IC50 ([1]; Table 4) [nM] | IC50 ([2]; Table 2, 3 hours, ICW, read-out: pERK-AGS (uM) Method B) [µM] | IC50 [2, 4] [µM] | IC50 [3] [nM]
CN(C)C(=O)c1nn2c(c1Cl)CN(c1nc(OC[C@@]34CCCN3C[C@H](F)C4)nc(N3CC4(CCc5sc(N)c(C#N)c54)C3)c1C#N)CCC2 [Compound 2, 5-[6-(2-amino-3-cyano-spiro[5,6-dihydrocyclopenta[b]thiophene-4,3′-azetidine]-1′-yl)-5-cyano-2-[[(2R,8S)-2-fluoro-1,2,3,5,6,7-hexahydropyrrolizin-8-yl]methoxy]pyrimidin-4-yl]-3-chloro-N,N-dimethyl-4,6,7,8-tetrahydropyrazolo[1,5-a][1,4]diazepine-2-carboxamide] | < 10 | < 10 | 0.01 to 0.1 | 0.01 to 0.1 | 1 to 10
CN(C)C(=O)c1nn2c(c1Cl)CN(c1nc(OC[C@@]34CCCN3C[C@H](F)C4)nc(N3CC4(CCCc5sc(N)c(C#N)c54)C3)c1C#N)CCC2 [Compound 3, 5-[6-(2-amino-3-cyano-spiro[6,7-dihydro-5H-benzothiophene-4,3′-azetidine]-1′-yl)-5-cyano-2-[[(2R,8S)-2-fluoro-1,2,3,5,6,7-hexahydropyrrolizin-8-yl]methoxy]pyrimidin-4-yl]-3-chloro-N,N-dimethyl-4,6,7,8-tetrahydropyrazolo[1,5-a][1,4]diazepine-2-carboxamide] | < 10 | < 10 |  | 0.01 to 0.1 | 1 to 10
N#Cc1c(N2C[C@H]3CC[C@@H](C2)N3)nc(OCC2(CN3CCOCC3)CC2)nc1N1CC2(CCc3sc(N)c(C#N)c32)C1 [Compound 4, 2-amino-1′-[5-cyano-2-[[1-(morpholinomethyl)cyclopropyl]methoxy]-6-[(1R,5S)-3,8-diazabicyclo[3.2.1]octan-3-yl]pyrimidin-4-yl]spiro[5,6-dihydrocyclopenta[b]thiophene-4,3′-azetidine]-3-carbonitrile] |  | < 10 |  | 0.001 to 0.01 | 1 to 10
CN(C)C(=O)c1nn2c(c1Cl)CN(c1nc(OCC3(CN4CCOCC4)CC3)nc(N3CC4(CCc5sc(N)c(C#N)c54)C3)c1C#N)CCC2 [Compound 5, 5-[6-(2-amino-3-cyano-spiro[5,6-dihydrocyclopenta[b]thiophene-4,3′-azetidine]-1′-yl)-5-cyano-2-[[1-(morpholinomethyl)cyclopropyl]methoxy]pyrimidin-4-yl]-3-chloro-N,N-dimethyl-4,6,7,8-tetrahydropyrazolo[1,5-a][1,4]diazepine-2-carboxamide] |  | < 10 |  | 0.01 to 0.1 | 1 to 10
N#Cc1c(N)sc2c1C1(CC2)CN(c2nc(OC[C@@]34CCCN3C[C@H](F)C4)nc(N3CCC[C@]4(C3)NC(=O)NC4=O)c2F)C1 [Compound 7, 2-amino-1′-[6-[(5R)-2,4-dioxo-1,3,9-triazaspiro[4.5]decan-9-yl]-5-fluoro-2-[[(2R,8S)-2-fluoro-1,2,3,5,6,7-hexahydropyrrolizin-8-yl]methoxy]pyrimidin-4-yl]spiro[5,6-dihydrocyclopenta[b]thiophene-4,3′-azetidine]-3-carbonitrile] |  | < 10 |  | 1 to 10 | 100 to 1000
CN(C)C(=O)c1cc2n(n1)CCCN(c1nc(OC[C@@]34CCCN3C[C@H](F)C4)nc(N3CC4(CCc5sc(N)c(C#N)c54)C3)c1C#N)C2 [Compound 8, 5-[6-(2-amino-3-cyano-spiro[5,6-dihydrocyclopenta[b]thiophene-4,3′-azetidine]-1′-yl)-5-cyano-2-[[(2R,8S)-2-fluoro-1,2,3,5,6,7-hexahydropyrrolizin-8-yl]methoxy]pyrimidin-4-yl]-N,N-dimethyl-4,6,7,8-tetrahydropyrazolo[1,5-a][1,4]diazepine-2-carboxamide] |  | < 10 |  | 0.01 to 0.1 | 1 to 10
CN(C)C(=O)c1nn2c(c1Cl)CN(c1nc(OC[C@@]34CCCN3C[C@H](F)C4)nc(N3CC4(CCc5sc(N)c(C#N)c54)C3)c1F)CCC2 [Compound 9, 5-[6-(2-amino-3-cyano-spiro[5,6-dihydrocyclopenta[b]thiophene-4,3′-azetidine]-1′-yl)-5-fluoro-2-[[(2R,8S)-2-fluoro-1,2,3,5,6,7-hexahydropyrrolizin-8-yl]methoxy]pyrimidin-4-yl]-3-chloro-N,N-dimethyl-4,6,7,8-tetrahydropyrazolo[1,5-a][1,4]diazepine-2-carboxamide] |  | < 10 |  | 0.1 to 1 | 10 to 100
CN(C)C(=O)c1nn2c(c1Cl)CN(c1nc(OC[C@@]34CCCN3C[C@H](F)C4)nc(N3CC4(CCCCc5sc(N)c(C#N)c54)C3)c1C#N)CCC2 [Compound 10, 5-[6-(2-amino-3-cyano-spiro[5,6,7,8-tetrahydrocyclohepta[b]thiophene-4,3′-azetidine]-1′-yl)-5-cyano-2-[[(2R,8S)-2-fluoro-1,2,3,5,6,7-hexahydropyrrolizin-8-yl]methoxy]pyrimidin-4-yl]-3-chloro-N,N-dimethyl-4,6,7,8-tetrahydropyrazolo[1,5-a][1,4]diazepine-2-carboxamide] |  | < 10 |  | 0.01 to 0.1 | 10 to 100
N#Cc1c(N2CC3(CCc4sc(N)c(C#N)c43)C2)nc(OC[C@@]23CCCN2C[C@H](F)C3)nc1N1CCC[C@]2(C1)NC(=O)NC2=O [Compound 11, 2-amino-1′-[5-cyano-6-[(5R)-2,4-dioxo-1,3,9-triazaspiro[4.5]decan-9-yl]-2-[[(2R,8S)-2-fluoro-1,2,3,5,6,7-hexahydropyrrolizin-8-yl]methoxy]pyrimidin-4-yl]spiro[5,6-dihydrocyclopenta[b]thiophene-4,3′-azetidine]-3-carbonitrile] |  | < 10 |  | 1 to 10 | 1000 to 10000
N#Cc1c(N2C[C@H]3CC[C@@H](C2)N3)nc(OCC2(c3ccn[nH]3)CC2)nc1N1CC2(CCc3sc(N)c(C#N)c32)C1 [Compound 98, 2-amino-1′-[5-cyano-6-[(1R,5S)-3,8-diazabicyclo[3.2.1]octan-3-yl]-2-[[1-(1H-pyrazol-5-yl)cyclopropyl]methoxy]pyrimidin-4-yl]spiro[5,6-dihydrocyclopenta[b]thiophene-4,3′-azetidine]-3-carbonitrile] |  | < 10 |  |  | 1000 to 10000
N#Cc1c(N2C[C@H]3CC[C@@H](C2)N3)nc(OC[C@@]23CCCN2C[C@H](F)C3)nc1N1CC2(C1)c1c(sc(N)c1C#N)CC1CC12 (stereo partly drawn) [Compound 99, 2-amino-1′-[5-cyano-6-[(1R,5S)-3,8-diazabicyclo[3.2.1]octan-3-yl]-2-[[(2R,8S)-2-fluoro-1,2,3,5,6,7-hexahydropyrrolizin-8-yl]methoxy]pyrimidin-4-yl]spiro[4a,5,5a,6-tetrahydrocyclopropa[f]benzothiophene-4,3′-azetidine]-3-carbonitrile] |  | < 10 |  |  | 1 to 10
N#Cc1c(N2C[C@H]3CC[C@@H](C2)N3)nc(OCC2(CN3CCOCC3)CC2)nc1N1CC2(C1)SCc1sc(N)c(C#N)c12 [Compound 100, 2-amino-1′-[5-cyano-6-[(1R,5S)-3,8-diazabicyclo[3.2.1]octan-3-yl]-2-[[1-(morpholinomethyl)cyclopropyl]methoxy]pyrimidin-4-yl]spiro[6H-thieno[2,3-c]thiophene-4,3′-azetidine]-3-carbonitrile] |  | < 10 |  |  | 1 to 10
N#Cc1c(N2C[C@H]3CC[C@@H](C2)N3)nc(OCC2(CN3CCOCC3)CC2)nc1N1CC2(C1)c1c(sc(N)c1C#N)CC2F (stereo partly drawn) [Compound 101, 2-amino-1′-[5-cyano-6-[(1R,5S)-3,8-diazabicyclo[3.2.1]octan-3-yl]-2-[[1-(morpholinomethyl)cyclopropyl]methoxy]pyrimidin-4-yl]-5-fluoro-spiro[5,6-dihydrocyclopenta[b]thiophene-4,3′-azetidine]-3-carbonitrile] |  | < 10 |  |  | 1 to 10
Cc1n[nH]nc1COc1nc(N2C[C@H]3CC[C@@H](C2)N3)c(C#N)c(N2CC3(CCc4sc(N)c(C#N)c43)C2)n1 [Compound 108] |  | 10 to 100 |  |  | 1000 to 10000
